The text below walks through data of patent US20120185956A1, “GLOBAL NAV1.7 KNOCKOUT MICE AND USES” (priority 2011, published 2012).

The subject of data set [1] is rats (Sprague-Dawley, male). To be noted: rat, in vivo. As to the method:
Veratridine was injected intra-plantar at 30 micrograms.
Known preclinical and clinical analgesics were tested to see if they could prevent veratridine-induced behaviors.

For a further data set, the system named is male mice (CD1 strain). The settings on record: mouse, in vivo.
The next data set addresses NaV1.8 (Rattus norvegicus, UniProt Q62968). The settings on record: cited from earlier work.
The next data set has as its target NaV1.5 (Rattus norvegicus, UniProt P15389). To be noted: cited from earlier work.
The target in a further data set is NaV1.9 (Rattus norvegicus, UniProt O88457). To be noted: cited from earlier work.
The target in another data set is T1, hNaV1.7 (Homo sapiens, UniProt Q15858).
T1 construct: expressed in transfected cells; host or cells: HEK 293
Format: cell-based.

T1 sequence (Q15858 whole entry): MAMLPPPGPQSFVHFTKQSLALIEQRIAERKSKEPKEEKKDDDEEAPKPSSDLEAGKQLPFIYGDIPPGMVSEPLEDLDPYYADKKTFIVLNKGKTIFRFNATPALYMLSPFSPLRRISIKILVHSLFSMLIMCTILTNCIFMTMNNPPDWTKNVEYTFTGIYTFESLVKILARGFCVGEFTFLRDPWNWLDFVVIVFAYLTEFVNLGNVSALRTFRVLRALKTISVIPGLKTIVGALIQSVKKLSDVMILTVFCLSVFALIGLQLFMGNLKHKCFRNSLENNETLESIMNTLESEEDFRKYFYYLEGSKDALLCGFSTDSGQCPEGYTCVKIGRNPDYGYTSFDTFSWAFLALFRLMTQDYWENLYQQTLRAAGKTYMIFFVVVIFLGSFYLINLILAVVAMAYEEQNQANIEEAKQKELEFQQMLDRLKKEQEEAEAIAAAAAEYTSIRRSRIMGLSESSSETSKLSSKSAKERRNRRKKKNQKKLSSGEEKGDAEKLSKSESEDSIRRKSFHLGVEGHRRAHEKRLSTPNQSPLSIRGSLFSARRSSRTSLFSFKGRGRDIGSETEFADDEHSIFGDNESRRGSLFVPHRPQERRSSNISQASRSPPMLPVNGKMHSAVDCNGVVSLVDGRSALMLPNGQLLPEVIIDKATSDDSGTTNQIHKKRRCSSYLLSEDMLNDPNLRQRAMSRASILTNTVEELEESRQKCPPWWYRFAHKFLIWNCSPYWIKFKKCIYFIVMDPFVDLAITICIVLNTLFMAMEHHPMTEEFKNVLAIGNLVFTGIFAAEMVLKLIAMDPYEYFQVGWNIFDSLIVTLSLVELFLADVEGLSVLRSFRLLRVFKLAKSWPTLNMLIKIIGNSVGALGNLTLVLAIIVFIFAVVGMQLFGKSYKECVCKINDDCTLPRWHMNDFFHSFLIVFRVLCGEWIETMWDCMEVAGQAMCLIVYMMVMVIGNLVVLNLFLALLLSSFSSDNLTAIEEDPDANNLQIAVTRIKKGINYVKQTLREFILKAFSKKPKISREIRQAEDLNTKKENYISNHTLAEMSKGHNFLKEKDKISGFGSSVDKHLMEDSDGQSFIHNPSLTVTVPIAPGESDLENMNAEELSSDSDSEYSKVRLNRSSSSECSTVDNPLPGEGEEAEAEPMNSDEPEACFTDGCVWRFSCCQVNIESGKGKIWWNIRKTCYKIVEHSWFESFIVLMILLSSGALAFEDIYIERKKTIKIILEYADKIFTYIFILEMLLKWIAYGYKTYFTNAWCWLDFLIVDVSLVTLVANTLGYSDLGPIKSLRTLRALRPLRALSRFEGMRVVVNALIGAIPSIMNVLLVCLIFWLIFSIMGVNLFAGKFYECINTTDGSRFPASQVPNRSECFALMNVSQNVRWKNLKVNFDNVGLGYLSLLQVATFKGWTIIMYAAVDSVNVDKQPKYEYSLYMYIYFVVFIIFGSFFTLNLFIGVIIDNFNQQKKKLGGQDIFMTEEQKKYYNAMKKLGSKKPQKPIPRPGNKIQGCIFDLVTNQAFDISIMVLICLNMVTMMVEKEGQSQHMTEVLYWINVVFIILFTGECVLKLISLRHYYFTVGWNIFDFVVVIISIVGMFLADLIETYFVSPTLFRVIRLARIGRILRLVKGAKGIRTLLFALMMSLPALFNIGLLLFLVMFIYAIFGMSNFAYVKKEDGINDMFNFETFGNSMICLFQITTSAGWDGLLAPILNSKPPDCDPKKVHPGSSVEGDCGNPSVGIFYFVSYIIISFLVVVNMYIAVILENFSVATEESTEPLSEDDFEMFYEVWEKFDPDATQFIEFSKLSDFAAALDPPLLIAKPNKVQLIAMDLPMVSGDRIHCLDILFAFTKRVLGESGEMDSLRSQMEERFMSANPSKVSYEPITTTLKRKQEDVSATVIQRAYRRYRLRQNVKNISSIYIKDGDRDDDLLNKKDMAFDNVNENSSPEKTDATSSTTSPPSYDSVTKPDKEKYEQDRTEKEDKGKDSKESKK
Sequence of NaV1.8 (Q62968 whole entry, looked up): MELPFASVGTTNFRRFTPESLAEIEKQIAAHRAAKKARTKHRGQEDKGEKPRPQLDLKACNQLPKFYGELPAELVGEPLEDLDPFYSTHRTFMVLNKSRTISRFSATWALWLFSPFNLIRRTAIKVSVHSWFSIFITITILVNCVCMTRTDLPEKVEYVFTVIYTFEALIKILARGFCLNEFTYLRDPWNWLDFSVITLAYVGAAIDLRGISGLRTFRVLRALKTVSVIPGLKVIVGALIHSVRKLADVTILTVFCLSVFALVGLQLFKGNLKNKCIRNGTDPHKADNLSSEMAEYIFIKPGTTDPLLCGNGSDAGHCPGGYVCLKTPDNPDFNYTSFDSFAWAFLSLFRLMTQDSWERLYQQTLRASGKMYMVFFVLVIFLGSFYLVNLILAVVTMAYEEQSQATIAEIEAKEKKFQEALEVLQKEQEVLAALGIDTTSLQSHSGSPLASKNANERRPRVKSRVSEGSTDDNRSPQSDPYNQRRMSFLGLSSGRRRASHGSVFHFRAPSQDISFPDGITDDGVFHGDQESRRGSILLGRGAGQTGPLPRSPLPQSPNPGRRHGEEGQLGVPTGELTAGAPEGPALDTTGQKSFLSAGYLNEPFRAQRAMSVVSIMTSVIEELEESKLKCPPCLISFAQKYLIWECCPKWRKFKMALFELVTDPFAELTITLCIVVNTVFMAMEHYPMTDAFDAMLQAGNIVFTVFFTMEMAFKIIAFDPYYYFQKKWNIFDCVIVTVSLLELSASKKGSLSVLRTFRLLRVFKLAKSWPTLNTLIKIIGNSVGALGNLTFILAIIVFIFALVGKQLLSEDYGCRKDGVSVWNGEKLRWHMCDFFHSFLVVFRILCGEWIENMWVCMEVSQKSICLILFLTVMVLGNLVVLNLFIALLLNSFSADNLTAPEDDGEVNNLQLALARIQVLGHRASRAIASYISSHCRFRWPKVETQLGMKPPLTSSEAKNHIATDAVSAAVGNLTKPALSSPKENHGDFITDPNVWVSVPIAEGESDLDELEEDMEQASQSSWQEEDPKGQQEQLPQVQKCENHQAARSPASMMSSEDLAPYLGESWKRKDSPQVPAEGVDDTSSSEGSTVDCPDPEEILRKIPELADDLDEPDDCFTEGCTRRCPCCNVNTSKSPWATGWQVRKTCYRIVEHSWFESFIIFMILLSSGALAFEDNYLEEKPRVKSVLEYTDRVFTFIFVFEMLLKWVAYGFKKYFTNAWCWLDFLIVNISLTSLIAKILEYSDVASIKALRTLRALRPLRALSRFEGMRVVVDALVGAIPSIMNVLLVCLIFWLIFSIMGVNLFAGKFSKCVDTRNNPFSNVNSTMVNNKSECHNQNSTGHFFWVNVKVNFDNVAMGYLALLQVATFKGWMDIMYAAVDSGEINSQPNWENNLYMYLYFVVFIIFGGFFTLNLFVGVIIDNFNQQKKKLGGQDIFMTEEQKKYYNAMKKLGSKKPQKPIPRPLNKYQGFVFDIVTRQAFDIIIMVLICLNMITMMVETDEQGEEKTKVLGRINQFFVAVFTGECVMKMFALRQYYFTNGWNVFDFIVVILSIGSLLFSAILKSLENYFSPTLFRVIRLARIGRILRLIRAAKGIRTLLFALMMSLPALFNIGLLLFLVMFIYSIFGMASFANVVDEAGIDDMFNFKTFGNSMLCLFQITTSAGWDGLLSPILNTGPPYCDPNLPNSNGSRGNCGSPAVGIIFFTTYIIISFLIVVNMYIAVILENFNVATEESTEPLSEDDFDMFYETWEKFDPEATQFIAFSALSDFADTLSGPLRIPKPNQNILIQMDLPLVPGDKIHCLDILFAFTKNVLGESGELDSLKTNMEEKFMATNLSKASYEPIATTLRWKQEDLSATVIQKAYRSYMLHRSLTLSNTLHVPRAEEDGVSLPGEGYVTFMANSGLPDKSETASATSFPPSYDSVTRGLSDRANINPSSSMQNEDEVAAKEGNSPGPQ

Turning to `CN1C(=O)CN=C(c2ccccc2)c2cc(Cl)ccc21` [Diazepam], in data set [1], the “Significant Reversal of Edema” value is given as “No”; the “Significant Reversal of Flinching” value is listed as “No”; the “Significant Reversal of Lifting” value was “No”; the “sodium channel activator-induced pain-like behaviors (licking, flinching)” value was “ineffective”.

On to `CNCC[C@H](Oc1cccc2ccccc12)c1cccs1` [Duloxetine, duloxetine], for which, in data set [1], the “Significant Reversal of Edema” value is given as “No” and the “sodium channel activator-induced pain-like behaviors (licking, flinching)” value is reported as “inhibited somewhat”.

With `NCC1(CC(=O)O)CCCCC1` [Gabapentin, gabapentin], the “Significant Reversal of Edema” value in data set [1] was “No”.

With `Cc1cccc(C)c1OCC(C)N` (centres unmarked) [Mexiletine, mexiletine], in data set [1], the “Significant Reversal of Edema” value is “Yes”, the “Significant Reversal of Flinching” value was “Yes” and the “Significant Reversal of Lifting” value is recorded as “Yes”. For the same molecule, the “veratridine-induced lifting and flinching behaviors” value in data set [1] (po) is recorded as “prevented in a dose-dependent manner”. Besides, in the data set with male mice (CD1 strain), the “effects of veratridine (lifting)” value is “blocked”, the “lifting/licking response to deltamethrin” value is “prevented the lifting/licking response” and the “lifting/licking response to grayanotoxin III” value is on record as “prevented the lifting/licking response”.

As to `CN1CC[C@]23c4c5ccc(O)c4O[C@H]2[C@@H](O)C=C[C@H]3[C@H]1C5` [Morphine, morphine], in data set [1], the “Significant Reversal of Edema” value was “No”.

With `COc1ccc2cc([C@H](C)C(=O)O)ccc2c1` [Naproxen, naproxen], the “Significant Reversal of Edema” value in data set [1] was “No”.

Take `NC1=N[C@H](O)[C@H]2[C@H]3O[C@]4(O)O[C@@H]([C@@H](O)[C@@]2(N1)[C@@H]4O)[C@]3(O)CO` [TTX, tetrodotoxin]: the “block by TTX” value on NaV1.8, on NaV1.5 and on NaV1.9 was “resistant to block” each time.

In the case of `CC1(C)[C@H](C(=O)O[C@H](C#N)c2cccc(Oc3ccccc3)c2)[C@@H]1C=C(Br)Br` [deltamethrin], the “response to injected sodium channel modulator” value in the data set on male mice (CD1 strain) is reported as “produced a lifting/licking response”.

Turning to `CC1(O)CC23CC(O)C4(O)C(CC(O)C4(C)C)C(C)(O)C2CCC1C3O` (centres unmarked) [grayanotoxin III], the “response to injected sodium channel modulator” value with male mice (CD1 strain) is “produced a lifting/licking response”. For the same molecule, at hNaV1.7, the “inactivation during the test pulse” value is listed as “did not inactivate” and the “voltage at which sodium currents start to be activated” value is −95 mV.

Take `COc1ccc(C(=O)O[C@H]2CC[C@@]3(C)[C@@H]4CC[C@H]5[C@]6(O)C[C@H](O)[C@@]7(O)[C@@H](CN8C[C@@H](C)CC[C@H]8[C@@]7(C)O)[C@]6(O)C[C@@]53O[C@]24O)cc1OC` [veratridine, 4α,9-Epoxy-3β-veratroyloxy-5β-cevan-4β,12,14,16β,17,20-hexaol]: in data set [1], the “pain-related behaviors caused by veratridine injected into the paw” value is listed as “caused two separate pain-related behaviors” and the “side effects of veratridine” value is given as “variable neurological side effects”. The “lifting behavior caused by veratridine” value in the data set with male mice (CD1 strain) is reported as “caused equivalent lifting behavior”.
